Among the data in US7521418B2, “Use of a polyene macrolide antifungal agent in combination with a glycopeptide antibacterial agent” (Theravance, Inc., priority 2003, dated 2009) are FICI values, retold here.

For test [1], the system named is C. neoformans ATCC 56991. As to the kind of experiment: Checkerboard MIC assay, FICI. The note with it: combination with Compound 1. Type of test: cell-based, Cryptococcus neoformans. An excerpt:
The following assay was used to determine the minimum inhibitory concentration (MIC) and fractional inhibitory concentration index (FICI) for combinations of an antifungal agent and a glycopeptide antibacterial agent. This assay and methods for calculating FICI are well known in the art. See, for example, Eliopoulos, E. G. and R. Moellering, Jr. “Antimicrobial Combinations” in Antibiotics in Laboratory Medicine, edited by V. Lorian, 4th Ed., Williams & Wilkins, Baltimore, MD, pp. 330-396 (1996); […] et al., Antimicrobial Agents and Chemotherapy 47(4):1416-1418 (2003); or […] et al., Antimicrobial Agents and Chemotherapy 46(10):3323-3326 (2002). […] The MIC of the glycopeptide antibacterial agent determined from this experiment was used in FIC calculations. […]

For test [2], the system named is C. krusei ATCC 32672. As to the kind of experiment: Checkerboard MIC assay, FICI. The test is classed as cell-based, Candida krusei. Conditions: combination with Compound 1; C. krusei ATCC 32672. An excerpt:
The following assay was used to determine the minimum inhibitory concentration (MIC) and fractional inhibitory concentration index (FICI) for combinations of an antifungal agent and a glycopeptide antibacterial agent. This assay and methods for calculating FICI are well known in the art. See, for example, Eliopoulos, E. G. and R. Moellering, Jr. “Antimicrobial Combinations” in Antibiotics in Laboratory Medicine, edited by V. Lorian, 4th Ed., Williams & Wilkins, Baltimore, MD, pp. 330-396 (1996); […] et al., Antimicrobial Agents and Chemotherapy 47(4):1416-1418 (2003); or […] et al., Antimicrobial Agents and Chemotherapy 46(10):3323-3326 (2002). Procedures, protocols, supplies and equipment used in this assay follow the recommendations approved and published by the National Committee for Clinical Laboratory Standards (NCCLS), Wayne, Pa. as described in NCCLS 2003, “Reference Method for Broth Dilution Antimicrobial Susceptibility Tests for Bacteria that Grow Aerobically; Approved Standard” (NCCLS document M7-A6); NCCLS 2002, “Reference Method for Broth Dilution Antifungal Susceptibility Tests of Filamentous Fungi that Grow Aerobically; Approved Standard” (NCCLS document M38-A); and NCCLS 2002 “Reference Method for Broth Dilution Antifungal Susceptibility Tests of Yeast; Approved Standards-2nd Edition” (NCCLS document M27-A2). Using a checkerboard method, a 2-fold dilution 100× final concentration master plate was prepared using a 96-well U-shape microtiter plate and an appropriate solvent. In the “checkerboard” method, a microtiter plate is divided into “columns” in which each well in the column contains the same amount of an antifungal agent (Compound A) being diluted along the x-axis, and “rows” in which each well in the row contains the same amount of a glycopeptide antibacterial agent (Compound B) being diluted on the y-axis. Also included is a row (or column) for Compound A or B alone. The dilutions used in the checkerboard are exponential (by powers of two). The result is that each well in the microtiter plate contains a unique concentration of the two compounds being tested. […] After mixing, 100 μL of 2× drug combinations were distributed into 96-well microtiter plates. […] Compound A was not added to Column 12, so Column 12 contained only Compound B. Compound B was diluted from row A starting at 6,400 μg/mL down to row G (100 μg/mL). Wells in Row A contained a final concentration of 64 μg/mL of Compound B; Row B contained a final concentration of 32 μg/mL of Compound B; Row C contained a final concentration of 16 μg/mL of Compound B; etc. Compound B was not added to Row H, so Row H only contained Compound A. […] The MIC of the glycopeptide antibacterial agent determined from this experiment was used in FIC calculations. […] RPMI-1640 without sodium bicarbonate media (GIBCO-BRL, Carlsbad, Calif.), an enriched media formulated for mammalian cells, was used according to the NCCLS guidelines for yeast and filamentous fungi susceptibility testing. The medium was buffered with 0.165 M 3-[N-Morpholino]propanesulfonic acid (MOPS) supplemented with 20 g/L glucose and pH adjusted to 7.0 with hydrogen chloride. Sabouraud Dextrose Agar ([…] plates, and Potato Dextrose Agar (PDA) plates were purchased from Hardy Diagnostic (Santa Maria, Calif.). Yeast cultures were started from -80° C. frozen stock streaked on […] incubated at 35° C. under aerobic conditions for 24 h. The […] in the refrigerator for up to 2 weeks and used regularly as a starting culture. About 24 to 48 h before each assay was run, yeasts were streaked on SDA plates for isolated colonies. To prepare the inoculum, from one to four colonies were resuspended in 5 mL of saline, and vortexed for 15 sec. […] For most yeast and mold cultures, the optical density (OD) of the suspension was adjusted to 0.11 in saline to provide 0.4×10^6 CFU/mL. However, for Fusarium moniliforme and Pseudallescheria boydii the OD of the suspension was adjusted to OD=0.17 to provide 0.4×10^6 CFU/mL. […]

SMILES strings stand for the structures.

As for `C[C@@H]1[C@H](O)[C@@H](C)/C=C/C=C/C=C/C=C/C=C/C=C/C=C/[C@H](O[C@@H]2O[C@H](C)[C@@H](O)[C@H](N)[C@@H]2O)C[C@@H]2O[C@](O)(C[C@@H](O)C[C@@H](O)[C@H](O)CC[C@@H](O)C[C@@H](O)CC(=O)O[C@H]1C)C[C@H](O)[C@H]2C(=O)O` [Amphotericin B], the FICI in test [1] was determined as 0.25; in test [2] it was 0.31.
The like results for `C[C@@H]1[C@H](O)[C@@H](C)/C=C/C=C/CC/C=C/C=C/C=C/C=C/C(O[C@H]2O[C@H](C)[C@@H](O)[C@H](N)[C@@H]2O)CC2O[C@](O)(CC(O)C(O)CCC(O)CC(O)CC(O)CC(=O)O[C@H]1C)CC(O)C2C(=O)O` (stereo partly shown) [Nystatin] were, in that order, 0.5 and 0.50.
